Assay results published in US11021475B2, “Amide-substituted heterocyclic compounds useful as modulators of IL-12, IL-23 and/or IFN alpha responses” (Bristol-Myers Squibb Company, priority 2012, dated 2021).
Where two headings read alike, the source gives them in different places.

Key:
[1] = system: IL-23 stimulated Kit225 T cells (STAT-dependent luciferase reporter); test: Kit225 T cell assay, IL-23-stimulated STAT-dependent luciferase reporter; format: cell-based, human
Protocol: (§1) Kit225 T cells with a stably-integrated STAT-dependent luciferase reporter were plated in RPMI (Gibco) containing 10% heat-inactivated FBS (Gibco) and 100 U/mL PenStrep (Gibco). The cells were then stimulated with either 20 ng/mL human recombinant IL-23 or 200 U/mL human recombinant IFNα (PBL InterferonSource) for 5-6 hours. Luciferase expression was measured using the STEADY-GLO® Luciferase Assay System (Promega) according to the manufacturer's instructions. Inhibition data were calculated by comparison to no inhibitor control wells for 0% inhibition and non-stimulated control wells for 100% inhibition.

[2] = system: IFNα stimulated Kit225 T cells (STAT-dependent luciferase reporter); test: Kit225 T cell assay, IFNα-stimulated STAT-dependent luciferase reporter; format: cell-based, human
Protocol: as §1

[3] = 20 ng/mL human recombinant IL-23, 5-6 hours, read-out: IL-23 Kit225 Reporter (IC50)
[4] = 200 U/mL human recombinant IFNα, 5-6 hours, read-out: IFNα Kit225 Reporter (IC50)
[5] = KIT225, 20 ng/mL human recombinant IL-23, 5-6 hours, read-out: IL-23 Kit225 Reporter (IC50)
[6] = KIT225, 200 U/mL human recombinant IFNα, 5-6 hours, read-out: IFNα Kit225 Reporter (IC50)

Row | IC50 [1, 3] [nM] | IC50 [2, 4] [nM] | SMILES | other results
1 | 20 | 30 | CNC(=O)c1nnc(NC(=O)C2CC2)cc1Nc1cccc(-c2ncc(F)cn2)c1OC [Example 116] | –
2 | 20 | 5.15 | CNC(=O)c1nnc(Nc2ccc(F)cn2)cc1Nc1cccc(-c2cnccn2)c1OC [Example 74] | –
3 | 2.96 | 1.6 | CCc1cc(Nc2cc(Nc3cccc(-c4ncn(C)n4)c3OC)c(C(=O)NC)nn2)nc(C)n1 [Example 115] | –
4 | 100 | 60 | CNC(=O)c1nnc(NC(=O)C2CC2)cc1Nc1cccc(-c2ncc(C)s2)c1OC [Example 101] | –
5 | 20 | 20 | CNC(=O)c1nnc(Nc2cc(C)n(C)n2)cc1Nc1cccc(-c2cscn2)c1OC [Example 131] | –
6 | 20 | 20 | CNC(=O)c1nnc(Nc2ccc(F)cn2)cc1Nc1cccc(-c2ccn(C)n2)c1OC [Example 55] | –
7 | 30 | 20 | CNC(=O)c1nnc(Nc2ccncn2)cc1Nc1cccc(-c2ncccn2)c1OC [Example 118] | –
8 | 40 | 50 | CNC(=O)c1nnc(Nc2cc(C)c(F)cn2)cc1Nc1ccccc1S(C)(=O)=O [Example 15] | –
9 | 270 | 210 | CNC(=O)c1nnc(Nc2ccccn2)cc1Nc1cccc(C(=O)NCC(C)(C)O)c1OC [Example 166] | –
10 | 700 | 490 | CNC(=O)c1nnc(Nc2cc(C)c(F)cn2)cc1Nc1cccc(-c2ncc(C)s2)c1OC [Example 124] | –
11 | 180 | 140 | CNC(=O)c1nnc(NC(=O)C2CC2)cc1Nc1cccc(-c2nccs2)c1OC [Example 105] | –
12 | 30 | 10 | CNC(=O)c1nnc(Nc2ccn(C)n2)cc1Nc1cccc(-c2ncccn2)c1OC [Example 111] | –
13 | 90 | 140 | CNC(=O)c1nnc(Nc2cc(C)n(C)n2)cc1Nc1cccc(-c2nccs2)c1OC [Example 107] | –
14 | 460 | 70 | CNC(=O)c1nnc(Nc2cc(OC)nc(C)n2)cc1Nc1ccccc1S(C)(=O)=O [Example 43] | –
15 | 50 | 130 | CNC(=O)c1nnc(Nc2ccccn2)cc1Nc1cccc(C(=O)NCC(F)(F)F)c1OC [Example 171] | –
16 | 310 | 110 | CNC(=O)c1nnc(Nc2ccccn2)cc1Nc1cccc(-c2nnc(C)o2)c1SC [Example 203] | –
17 | 80 | 30 | CNC(=O)c1nnc(Nc2ccc(F)cn2)cc1Nc1cccc(-c2cccnn2)c1OC [Example 79] | –
18 | 50 | 20 | CCc1cc(Nc2cc(Nc3ccccc3S(C)(=O)=O)c(C(=O)NC)nn2)nc(C)n1 [Example 47] | –
19 | 6.56 | 3.45 | CCc1cc(Nc2cc(Nc3cccc(-c4ncn(C)n4)c3OC)c(C(=O)NC)nn2)ncn1 [Example 68] | –
20 | 80 | 60 | CNC(=O)c1nnc(Nc2cc(C)c(C)nn2)cc1Nc1ccccc1S(C)(=O)=O [Example 21] | –
21 | 160 | 100 | CNC(=O)c1nnc(Nc2ccc(OC)cn2)cc1Nc1ccccc1S(C)(=O)=O [Example 22] | –
22 | 340 | 230 | CNC(=O)c1nnc(Nc2ccccn2)cc1Nc1cccc(C(=O)NC2CC2)c1OC [Example 165] | –
23 | 150 | 30 | CNC(=O)c1nnc(NC(=O)C2CC2)cc1Nc1cccc(-c2cnn(CC(C)(C)O)c2)c1OC [Example 189] | –
24 | 40 | 20 | CNC(=O)c1nnc(NC(=O)C2CC2)cc1Nc1cccc(-c2n[nH]c(C)n2)c1OC [Example 141] | –
25 | 10 | 8.63 | CNC(=O)c1nnc(Nc2cc(C)nc(C)n2)cc1Nc1cccc(-c2c[nH]nn2)c1OC [Example 191] | –
26 | 10 | 5.99 | CNC(=O)c1nnc(Nc2ccc(F)cn2)cc1Nc1cccc(-c2ncccn2)c1OC [Example 71] | –
27 | 160 | 190 | CNC(=O)c1nnc(Nc2cc(C)nc(COC)n2)cc1Nc1ccccc1S(C)(=O)=O [Example 41] | –

Further lines, the molecule ahead of its results:

Row | SMILES | IC50 [1, 3] [nM] | IC50 [2, 4] [nM] | other results
28 | CCn1cnc(-c2cccc(Nc3cc(Nc4ccccn4)nnc3C(=O)NC)c2OC)n1 [Example 177] | 1.52 | 1.63 | –
29 | CNC(=O)c1nnc(NC(=O)C2CC2)cc1Nc1cccc(-c2ncnn2C)c1OC [Example 179] | 450 | 140 | –
30 | CNC(=O)c1nnc(Nc2ccc(N3CCOCC3)cn2)cc1Nc1ccccc1S(C)(=O)=O [Example 29] | 140 | 80 | –
31 | COc1c(Nc2cc(NC(=O)C3CC3)nnc2C(N)=O)cccc1-c1ncn(C)n1 [Example 201] | 20 | 4.13 | –
32 | CNC(=O)c1nnc(Nc2cc(CO)ccn2)cc1Nc1cccc(-c2ncn(C)n2)c1OC [Example 110] | 80 | 20 | –
33 | CNC(=O)c1nnc(Nc2cc(C(C)O)ccn2)cc1Nc1ccccc1S(C)(=O)=O (stereo not drawn) [Example 48] | 330 | 110 | –
34 | CNC(=O)c1nnc(Nc2ccc(CO)cn2)cc1Nc1ccccc1S(C)(=O)=O [Example 49] | 560 | 220 | –
35 | CNC(=O)c1nnc(Nc2cnc(C)cn2)cc1Nc1cccc(-c2ncccn2)c1OC [Example 113] | 30 | 4.41 | –
36 | [2H]C([2H])([2H])NC(=O)c1nnc(NC(=O)C2CC2)cc1Nc1cccc(-c2cn[nH]c2)c1OC [Example 185] | – | – | IC50 [1, 5]: 280 nM; IC50 [2, 6]: 120 nM
37 | CNC(=O)c1nnc(Nc2cc(C#N)ccn2)cc1Nc1ccccc1S(C)(=O)=O [Example 11] | 100 | 60 | –
38 | CNC(=O)c1nnc(Nc2ccccn2)cc1Nc1cccc(-c2cscn2)c1OC [Example 132] | 20 | 20 | –
39 | CNC(=O)c1nnc(Nc2cc(C(C)(C)O)ccn2)cc1Nc1cccc(-c2ncn(C)n2)c1OC [Example 120] | 60 | 10 | –
40 | CNC(=O)c1nnc(Nc2cc(C)n(C)n2)cc1Nc1cccc(-c2cnc(C)s2)c1OC [Example 161] | 210 | 210 | –
41 | CNC(=O)c1nnc(Nc2ccccn2)cc1Nc1cccc(-c2nnc[nH]2)c1SC [Example 204, N-methyl-4-((2-(methylthio)-3-(4H-1,2,4-triazol-3-yl)phenyl)amino)-6-(pyridin-2-ylamino)pyridazine-3-carboxamide] | – | – | IC50 [1, 5]: 70 nM; IC50 [2, 6]: 20 nM
42 | [2H]C([2H])([2H])NC(=O)c1nnc(NC(=O)C2CC2)cc1Nc1cccc(-c2ncn(CC)n2)c1OC [Example 174] | – | – | IC50 ([1]; Homo sapiens, KIT225, read-out: IL-23 Kit225 Reporter (IC50, nM)): 20 nM; IC50 ([2]; Homo sapiens, KIT225, read-out: IFNα Kit225 Reporter (IC50, nM)): 6.97 nM
43 | CNC(=O)c1nnc(Nc2cc(COC)nc(C)n2)cc1Nc1ccccc1S(C)(=O)=O [Example 40] | 80 | 120 | –
44 | CNC(=O)c1nnc(Nc2cc(C)ccn2)cc1Nc1ccccc1S(C)(=O)=O [Example 14] | 10 | 10 | –

Row | SMILES | IC50 [1, 3] [nM] | IC50 [2, 4] [nM] | other results
45 | CNC(=O)c1nnc(Nc2cc(C)nc(C)n2)cc1Nc1cccc(-c2nc(C)nn2C)c1OC [Example 184] | 6.41 | 7.2 | –
46 | CNC(=O)c1nnc(Nc2cc(C)c(F)cn2)cc1Nc1cccc(-c2nccs2)c1OC [Example 106] | 80 | 80 | –
47 | [2H]C([2H])([2H])NC(=O)c1nnc(Nc2ccccn2)cc1Nc1cccc(-c2nnc[nH]2)c1OC [Example 172] | – | – | IC50 [1, 5]: 5.45 nM; IC50 [2, 6]: 6.19 nM
48 | CNC(=O)c1nnc(Nc2cc(C)n(C)n2)cc1Nc1cccc(-c2ncn(C)n2)c1OC [Example 60] | 10 | 3.38 | –
49 | CNC(=O)c1nnc(Nc2ccnc(C)n2)cc1Nc1ccccc1S(C)(=O)=O [Example 39] | 340 | 130 | –
50 | CNC(=O)c1nnc(NC(=O)C2CC2)cc1Nc1cccc(-c2ncn(C)n2)c1OC [Example 52] | 10 | 9.21 | –
51 | [2H]C([2H])([2H])NC(=O)c1nnc(NC(=O)C2CC2)cc1Nc1cccc(-c2cc[nH]n2)c1OC [Example 195] | – | – | IC50 [1, 5]: 10 nM; IC50 [2, 6]: 20 nM
52 | CNC(=O)c1nnc(Nc2ccccn2)cc1Nc1ccccc1S(C)(=O)=O [Example 31] | 80 | 90 | –
53 | CNC(=O)c1nnc(NC(=O)C2CC2F)cc1Nc1ccccc1S(C)(=O)=O (stereo not drawn) [Example 28] | 420 | 610 | –
54 | CNC(=O)c1nnc(Nc2ccc(F)cn2)cc1Nc1ccccc1S(C)(=O)=O [Example 6] | 190 | 110 | –
55 | CNC(=O)c1nnc(Nc2ccnc(C)n2)cc1Nc1cccc(-c2ncn(C)n2)c1OC [Example 103] | 20 | 6.06 | –
56 | [2H]C([2H])([2H])NC(=O)c1nnc(NC(=O)C2CC2)cc1Nc1cccc(C#N)c1OC [Example 202, 4-((3-cyano-2-methoxyphenyl)amino)-6-(cyclopropanecarboxamido)-N-trideuteromethylpyridazine-3-carboxamide] | – | – | IC50 [1, 5]: 290 nM; IC50 [2, 6]: 330 nM
57 | CNC(=O)c1nnc(Nc2ccccn2)cc1Nc1cccc(-c2nnnn2C)c1OC [Example 145] | 10 | 8.44 | –
58 | CNC(=O)c1nnc(Nc2cc(C)n(C)n2)cc1Nc1ccccc1S(C)(=O)=O [Example 24] | 60 | 50 | –
59 | CNC(=O)c1nnc(Nc2ccc(F)cn2)cc1Nc1cccc(-c2nccc(C)n2)c1OC [Example 83] | 50 | 40 | –
60 | CNC(=O)c1nnc(Nc2ccc(C)nn2)cc1Nc1ccccc1S(C)(=O)=O [Example 19] | 90 | 90 | –
